Results reported in PMC6155576, “Anti-Neuroinflammatory ent-Kaurane Diterpenoids from Pteris multifida Roots” (Molecules : A Journal of Synthetic Chemistry and Natural …, 2016).

What was measured:
[1] = test system: NO production in LPS-activated BV-2 cells; test: NO production assay (Griess reagent) in LPS-activated BV-2 cells; type: cell-based; settings: Mus musculus; LPS-stimulated BV-2 cells; samples 1 h before 100 ng/mL LPS, 24 h incubation; read-out: IC50, concentration that caused 50% inhibition of NO production
Description: (§1) The BV-2 mouse microglial cells were generously provided by Dr. Sun Yeou Kim at Kyunghee University (Suwon, Korea). The cells were maintained in DMEM containing 10% FBS with 1% PS at 37 °C in a humidified atmosphere of 95% air and 5% CO2. All tested fractions and samples were dissolved in DMSO (final concentration in cultures ≤0.1%).
(§2) To evaluate NO production, we seeded BV-2 cells in 96-well plates (4 × 10^5 cells/mL) for 24 h and then treated them with various concentrations of the samples for 1 h before exposure to 100 ng/mL of LPS. After the 24 h incubation, the nitrite in the culture media was measured to assess NO production in the BV-2 cells with the Griess reagent (1% sulfanilamide and 0.1% naphtylethylenediamine dihydrochloride in 2% phosphoric acid). In 96-well plates, 100 μL of sample aliquots were mixed with 100 μL of Griess reagent and incubated at room temperature for 15 min. The absorbance at 550 nm was measured on a microplate reader. The concentration was determined with a nitrite standard curve. Cell viability was assessed by the MTT assay. After exposing the cells to 2 mg/mL MTT for 2 h, the absorbance was measured by an ELISA plate reader at 562 nm.

[2] = Cell viability by MTT assay; type: cell-based, mouse; settings: mouse, BV-2 microglial cells; MTT assay after treatment with 100 μM of each compound for 24 h; mean ± SD
Description: as §1, §2

IL-1β = IL-1β ELISA in LPS-activated BV-2 microglia; type: cell-based, mouse; settings: pre-treatment, dose-dependent, result in words
Description: (§3) BV-2 microglial cells were cultured in 96-well plates, preincubated for 30 min. with different concentrations of compounds 1 and 7 and then stimulated for 24 h with LPS (Sigma-Aldrich Co.). Supernatant from the culture (100 μL) was collected to determine the concentration of PGE2, TNF-α, IL-1β, and IL-6, respectively, with ELISA kits (TNF-α, Abcam, Cambridge, MA, USA; PGE2, IL-1β, and IL-6, R&D Systems, Minneapolis, MN, USA).

TNF-α = TNF-α ELISA in LPS-activated BV-2 microglia; type: cell-based, mouse; settings: pre-treatment, dose-dependent, result in words
Description: as §3

[3] = test system: cyclooxygenase-2 (COX-2) protein expression; test: Western blot of COX-2 expression in LPS-activated BV-2 microglia; type: cell-based, mouse; settings: result in words
Description: Cells were harvested and lysed with radioimmunoprecipitation (RIPA) buffer (Bio-Rad, Hercules, CA USA). Cell lysates were centrifuged, and the supernatant was collected. The protein concentration was determined by protein assay reagents (Bio-Rad). The proteins were separated onto 10% SDS-polyacrylamide gel and transferred to polyvinylidene fluoride (PVDF) membrane. The membranes were blocked with 5% non-fat dry milk in Tris-buffered saline with 0.1% Tween-20 (TBS-T) buffer for 1 h at room temperature and then incubated with primary antibodies in TBS-T buffer containing 1% non-fat dry milk overnight at 4 °C. The membranes were washed with TBS-T buffer and incubated with goat anti-rabbit or anti-mouse horseradish peroxidase-conjugated IgG secondary antibodies from Santa Cruz Biotechnology (Santa Cruz, CA, USA) for 2 h. The membranes were washed with TBS-T buffer, and the antigen-antibody complex was detected with an enhanced chemiluminescence detection system (GE Healthcare, Milwaukee, MI, USA).

IL-6 = IL-6 ELISA in LPS-activated BV-2 microglia; type: cell-based, mouse; settings: pre-treatment, dose-dependent, result in words
Description: as §3

BV-2 cells = test: Cell viability by MTT assay; type: cell-based, mouse; settings: BV-2 cells, result in words
Description: as §1, §2

PGE2 = PGE2 ELISA in LPS-activated BV-2 microglia; type: cell-based, mouse; settings: pre-treatment, dose-dependent, result in words
Description: as §3

## C=C1[C@@H]2CC[C@H]3[C@]4(C)C[C@H](O[C@@H]5O[C@H](CO)[C@@H](O)[C@H](O)[C@H]5O)CC(C)(C)[C@H]4CC[C@]3([C@@H]2O)[C@H]1O [Compound 8, pterokaurane P1 2-O-β-D-glucopyranoside]
[1]
  IC50: 101 µM
[2]
  viability at 24 h, 100 μM: 91.7 ± 3.7%

## CC1(C)C[C@@H](O[C@@H]2O[C@H](CO)[C@@H](O)[C@H](O)[C@H]2O)C[C@]2(C)[C@@H]1CC[C@@]13C[C@@H](CC[C@H]12)[C@@](O)(CO)C3 [Compound 12, 2β,16α,17-trihydroxy-ent-kaurane 2-O-β-D-glucopyranoside]
[1]
  IC50: 114 µM
[2]
  viability at 24 h, 100 μM: 93.6 ± 8.3%

## C=C1[C@@H]2CC[C@H]3[C@]4(C)C[C@H](O[C@@H]5O[C@H](CO)[C@@H](O)[C@H](O)[C@H]5O)C[C@@](C)(CO)[C@H]4CC[C@]3(C2)[C@H]1O [Compound 5, 2β,15α,19-trihydroxy-ent-kaur-16-ene 2-O-β-D-gluco-pyranoside]
[1]
  IC50: 148 µM
[2]
  viability at 24 h, 100 μM: 73.6 ± 2.9%

## C=C1[C@@H]2CC[C@H]3[C@]4(C)C[C@H](O[C@@H]5O[C@H](CO)[C@@H](O)[C@H](O)[C@H]5O)C[C@](C)(CO)[C@H]4CC[C@]3(C2)[C@H]1O [Compound 4, pterokaurane M1 2-O-β-D-glucopyranoside]
[1]
  IC50: 148 µM
[2]
  viability at 24 h, 100 μM: 90.5 ± 10.2%

## CC1(C)C[C@@H](O[C@@H]2O[C@H](CO)[C@@H](O)[C@H](O)[C@H]2O)C[C@]2(C)[C@@H]1CC[C@@]13C[C@@H](CC[C@H]12)[C@](C)(O[C@@H]1O[C@H](CO)[C@@H](O)[C@H](O)[C@H]1O)C3 [Compound 10, 2β,16α-dihydroxy-ent-kaurane 2,16-di-O-β-D-glucopyranoside]
[1]
  IC50: 182 µM
[2]
  viability at 24 h, 100 μM: 88.2 ± 8%

## C=C1[C@@H]2CC[C@H]3[C@]4(C)C[C@H](O)CC(C)(C)[C@H]4CC[C@]3(C2)[C@H]1O [Compound 1, 2β,15α-dihydroxy-ent-kaur-16-ene]
IL-1β
  Level of IL-1β: effectively decreased
[1]
  IC50: 13.9 µM
TNF-α
  Level of TNF-α: effectively decreased
[3]
  Protein level of COX-2 increased by LPS treatment: down-regulated
IL-6
  Level of IL-6: effectively decreased
[2]
  viability at 24 h, 100 μM: 90.7 ± 7.3%
BV-2 cells
  Cytotoxicity: without any cytotoxicity
PGE2
  Level of PGE2: effectively decreased

## C=C1[C@@H]2CC[C@H]3[C@]4(C)C[C@H](O)C[C@](C)(CO)[C@H]4CC[C@]3(C2)[C@H]1O [Compound 3, pterokaurane M1]
[1]
  IC50: 84 µM
[2]
  viability at 24 h, 100 μM: 87.7 ± 2.9%

## C=C1[C@@H]2CC[C@H]3[C@]4(C)C[C@H](O)CC(C)(C)[C@H]4CC[C@]3([C@@H]2O)[C@H]1O [Compound 7, pterokaurane P1]
IL-1β
  Level of IL-1β: effectively decreased
[1]
  IC50: 10.8 µM
TNF-α
  Level of TNF-α: effectively decreased
[3]
  Protein level of COX-2 increased by LPS treatment: down-regulated
IL-6
  Level of IL-6: effectively decreased
[2]
  viability at 24 h, 100 μM: 88.7 ± 2.4%
BV-2 cells
  Cytotoxicity: without any cytotoxicity
PGE2
  Level of PGE2: effectively decreased

## CC1(C)C[C@@H](O)C[C@]2(C)[C@@H]1CC[C@@]13C[C@@H](CC[C@H]12)[C@](C)(O)C3 [Compound 9, 2β,16α-dihydroxy-ent-kaurane]
[1]
  IC50: 122 µM
[2]
  viability at 24 h, 100 μM: 97.5 ± 1.3%

## C[C@]1(CO)C[C@@H](O)C[C@]2(C)[C@@H]1CC[C@@]13C[C@@H](CC[C@H]12)[C@](C)(O)C3 [Compound 11, pterokaurane R]
[1]
  IC50: 171 µM
[2]
  viability at 24 h, 100 μM: 83.2 ± 10.2%

## C=C1[C@@H]2CC[C@H]3[C@]4(C)C[C@H](O)CC(C)(C)[C@H]4[C@H](O)C[C@]3(C2)[C@H]1O [Compound 6, 2β,6β,15α-trihydroxy-ent-kaur-16-ene]
[1]
  IC50: 137 µM
[2]
  viability at 24 h, 100 μM: 85.9 ± 0.1%

## C=C1[C@@H]2CC[C@H]3[C@]4(C)C[C@H](O[C@@H]5O[C@H](CO)[C@@H](O)[C@H](O)[C@H]5O)CC(C)(C)[C@H]4CC[C@]3(C2)[C@H]1O [Compound 2, creticoside A]
[1]
  IC50: 92 µM
[2]
  viability at 24 h, 100 μM: 95.7 ± 4%

## COC(=O)[C@@H](N)CCCNC(N)=N[N+](=O)[O-] [L-NAME, Nω-nitro-L-arginine methyl ester, reference compound]
[1]
  IC50: 53.5 µM
[2]
  viability at 24 h, 100 μM: 100 ± 5%
